Literature values, collected in PMC9516332 (Frontiers in Oncology, 2022).
Like-named read-outs stand apart in the source and are kept apart here.

Columns and labels:
Conditions in all cases: cited from earlier work
[1] = target: T1, panel of 255 wild-type kinases (Homo sapiens, UniProt P51817)
T1 sequence (P51817 1-358): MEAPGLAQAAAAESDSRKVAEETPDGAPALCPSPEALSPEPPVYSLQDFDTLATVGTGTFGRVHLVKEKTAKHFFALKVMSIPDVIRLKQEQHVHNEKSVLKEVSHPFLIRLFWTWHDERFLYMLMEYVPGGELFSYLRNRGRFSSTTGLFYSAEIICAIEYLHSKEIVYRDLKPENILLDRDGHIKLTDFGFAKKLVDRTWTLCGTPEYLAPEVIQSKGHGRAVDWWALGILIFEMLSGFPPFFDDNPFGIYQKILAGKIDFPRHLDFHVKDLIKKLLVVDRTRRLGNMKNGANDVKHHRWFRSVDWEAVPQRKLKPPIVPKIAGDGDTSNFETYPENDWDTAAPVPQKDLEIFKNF

[2] = target: T2, panel of 255 wild-type kinases (Homo sapiens, UniProt P43403)
T2 sequence (P43403 1-619): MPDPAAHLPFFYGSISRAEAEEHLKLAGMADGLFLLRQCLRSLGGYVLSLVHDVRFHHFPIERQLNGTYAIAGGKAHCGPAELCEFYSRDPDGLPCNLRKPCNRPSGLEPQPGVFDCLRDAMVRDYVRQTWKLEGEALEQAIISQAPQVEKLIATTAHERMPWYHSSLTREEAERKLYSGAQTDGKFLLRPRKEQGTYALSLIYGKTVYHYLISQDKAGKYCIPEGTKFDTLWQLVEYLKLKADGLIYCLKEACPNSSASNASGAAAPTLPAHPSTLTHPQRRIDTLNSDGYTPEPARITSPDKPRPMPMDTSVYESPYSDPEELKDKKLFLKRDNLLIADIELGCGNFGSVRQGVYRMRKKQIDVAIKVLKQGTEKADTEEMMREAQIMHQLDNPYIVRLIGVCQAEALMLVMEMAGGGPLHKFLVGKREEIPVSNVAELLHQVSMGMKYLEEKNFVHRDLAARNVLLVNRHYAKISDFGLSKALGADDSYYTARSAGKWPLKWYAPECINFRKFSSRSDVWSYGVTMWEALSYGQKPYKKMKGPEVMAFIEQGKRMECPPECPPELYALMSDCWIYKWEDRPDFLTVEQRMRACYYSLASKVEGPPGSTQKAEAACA

[3] = target: T3, panel of 255 wild-type kinases (Homo sapiens, UniProt P41743)
T3 sequence (P41743 1-596): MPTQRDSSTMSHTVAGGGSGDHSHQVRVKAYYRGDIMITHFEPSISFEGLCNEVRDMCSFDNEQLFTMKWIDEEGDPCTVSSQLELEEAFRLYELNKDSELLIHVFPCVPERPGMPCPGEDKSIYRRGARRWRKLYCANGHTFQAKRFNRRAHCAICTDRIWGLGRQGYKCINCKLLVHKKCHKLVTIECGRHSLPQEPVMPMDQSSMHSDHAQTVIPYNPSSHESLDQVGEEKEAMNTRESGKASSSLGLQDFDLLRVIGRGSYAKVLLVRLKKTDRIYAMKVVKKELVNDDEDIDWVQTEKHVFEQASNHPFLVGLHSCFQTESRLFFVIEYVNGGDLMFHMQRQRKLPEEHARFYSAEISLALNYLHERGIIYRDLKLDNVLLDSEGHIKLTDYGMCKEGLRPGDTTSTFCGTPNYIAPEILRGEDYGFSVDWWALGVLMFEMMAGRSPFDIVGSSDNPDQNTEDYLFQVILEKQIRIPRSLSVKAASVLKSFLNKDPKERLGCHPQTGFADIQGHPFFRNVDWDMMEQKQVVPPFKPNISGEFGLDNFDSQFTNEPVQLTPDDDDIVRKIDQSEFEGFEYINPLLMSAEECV

[4] = target: T4, panel of 255 wild-type kinases (Homo sapiens, UniProt P54753)
T4 sequence (P54753 34-998): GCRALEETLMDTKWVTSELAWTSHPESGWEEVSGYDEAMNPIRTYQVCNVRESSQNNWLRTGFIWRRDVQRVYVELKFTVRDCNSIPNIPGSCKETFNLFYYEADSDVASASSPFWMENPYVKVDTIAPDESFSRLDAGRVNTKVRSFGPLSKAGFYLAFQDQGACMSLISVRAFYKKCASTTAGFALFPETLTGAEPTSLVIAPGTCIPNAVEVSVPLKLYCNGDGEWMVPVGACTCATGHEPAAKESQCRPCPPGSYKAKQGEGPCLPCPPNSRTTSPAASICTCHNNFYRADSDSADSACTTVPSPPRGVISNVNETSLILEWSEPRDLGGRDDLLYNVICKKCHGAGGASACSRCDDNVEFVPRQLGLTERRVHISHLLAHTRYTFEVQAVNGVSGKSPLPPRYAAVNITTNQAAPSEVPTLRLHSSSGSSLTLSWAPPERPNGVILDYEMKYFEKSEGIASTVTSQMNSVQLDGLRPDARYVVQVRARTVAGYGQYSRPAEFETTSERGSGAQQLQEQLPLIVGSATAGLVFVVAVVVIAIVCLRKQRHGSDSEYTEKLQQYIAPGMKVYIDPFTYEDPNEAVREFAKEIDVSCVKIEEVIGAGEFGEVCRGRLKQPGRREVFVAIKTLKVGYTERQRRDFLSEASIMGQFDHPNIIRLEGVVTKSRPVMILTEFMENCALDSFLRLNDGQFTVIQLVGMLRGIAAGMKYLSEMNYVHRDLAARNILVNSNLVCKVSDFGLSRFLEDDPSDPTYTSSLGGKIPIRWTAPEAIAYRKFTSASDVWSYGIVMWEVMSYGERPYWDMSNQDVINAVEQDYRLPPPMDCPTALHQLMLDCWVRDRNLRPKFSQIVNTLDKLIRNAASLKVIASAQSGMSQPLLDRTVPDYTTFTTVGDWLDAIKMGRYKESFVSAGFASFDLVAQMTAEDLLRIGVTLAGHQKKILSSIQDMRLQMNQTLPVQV

[5] = target: panel of 255 wild-type kinases (Homo sapiens, UniProt Q15119)
[6] = kinase PRKX, 1 µmol/L single concentration, ref DOI: 10.1371/journal.pone.0092146
[7] = kinase ZAP70, 1 µmol/L single concentration, ref DOI: 10.1371/journal.pone.0092146
[8] = kinase PKCι, 1 µmol/L single concentration, ref DOI: 10.1371/journal.pone.0092146
[9] = kinase EPHB3, 1 µmol/L single concentration, ref DOI: 10.1371/journal.pone.0092146
[10] = kinase PDHK2, 1 µmol/L single concentration, ref DOI: 10.1371/journal.pone.0092146
[11] = kinase PRKX, 1 µmol/L single concentration, ref DOI: 10.1158/1535-7163.MCT-18-0877
[12] = kinase ZAP70, 1 µmol/L single concentration, ref DOI: 10.1158/1535-7163.MCT-18-0877
[13] = kinase PKCι, 1 µmol/L single concentration, ref DOI: 10.1158/1535-7163.MCT-18-0877
[14] = kinase EPHB3, 1 µmol/L single concentration, ref DOI: 10.1158/1535-7163.MCT-18-0877
[15] = kinase PDHK2, 1 µmol/L single concentration, ref DOI: 10.1158/1535-7163.MCT-18-0877

Row | Compound | %-inhibition at 1 µmol/L, PRKX [1, 6] [%] | %-inhibition at 1 µmol/L, ZAP70 [2, 7] [%] | %-inhibition at 1 µmol/L, PKCι [3, 8] [%] | %-inhibition at 1 µmol/L, EPHB3 [4, 9] [%] | %-inhibition at 1 µmol/L, PDHK2 [5, 10] [%] | %-inhibition at 1 µmol/L, PRKX [1, 11] [%] | %-inhibition at 1 µmol/L, ZAP70 [2, 12] [%] | %-inhibition at 1 µmol/L, PKCι [3, 13] [%] | %-inhibition at 1 µmol/L, EPHB3 [4, 14] [%] | %-inhibition at 1 µmol/L, PDHK2 [5, 15] [%] | other results
1 | CCCS(=O)(=O)Nc1ccc(F)c(C(=O)c2c[nH]c3ncc(-c4ccc(Cl)cc4)cc23)c1F [vemurafenib] | -3.45 | 6 | -16 | 2 | 3.73 |  |  |  |  |  | 
2 | CC(=O)Nc1cccc(-n2c(=O)n(C3CC3)c(=O)c3c(Nc4ccc(I)cc4F)n(C)c(=O)c(C)c32)c1 [trametinib] | -1.19 | -3 | 9 | -5.47 | -0.542 |  |  |  |  |  | 
3 | CCc1cc2c(cc1N1CCC(N3CCOCC3)CC1)C(C)(C)c1[nH]c3cc(C#N)ccc3c1C2=O [alectinib] |  |  |  |  |  | 1.81 | 1.18 | 11 | 2 | 0.393 | 
4 | CC(C)(C)c1nc(-c2cccc(NS(=O)(=O)c3c(F)cccc3F)c2F)c(-c2ccnc(N)n2)s1 [dabrafenib] | -1.55 | 3.47 | 14 | 3 | 0.108 |  |  |  |  |  | 
5 | CC#CC(=O)N1CCC[C@H]1c1nc(-c2ccc(C(=O)Nc3ccccn3)cc2)c2c(N)nccn12 [acalabrutinib] |  |  |  |  |  | -4.59 | -1.53 | -8 | 1.64 | 0.164 | 
6 | O=C(c1ccc(F)c(F)c1Nc1ccc(I)cc1F)N1CC(O)([C@@H]2CCCCN2)C1 [cobimetinib] |  |  |  |  |  | 2.17 | -3 | 2.45 | 0.898 | -0.379 | 
7 | C=CC(=O)Nc1cc(Nc2nccc(-c3cn(C)c4ccccc34)n2)c(OC)cc1N(C)CCN(C)C [osimertinib] |  |  |  |  |  | 1.37 | 18 | 20 | -0.0464 | -2 | 
8 | Cc1cc(Nc2ncc(Cl)c(Nc3ccccc3S(=O)(=O)C(C)C)n2)c(OC(C)C)cc1C1CCNCC1 [ceritinib] |  |  |  |  |  | 11 | 10 | 25 | -1 | -1.41 | 
9 | CO[C@@H]1[C@H](N(C)C(=O)c2ccccc2)C[C@H]2O[C@]1(C)n1c3ccccc3c3c4c(c5c6ccccc6n2c5c31)C(=O)NC4 [midostaurin] |  |  |  |  |  | 97 | 94 | 3 | 1.53 | -1.18 | 
10 | COc1cc(N2CCC(N3CCN(C)CC3)CC2)ccc1Nc1ncc(Cl)c(Nc2ccccc2P(C)(C)=O)n1 [brigatinib] |  |  |  |  |  |  |  |  |  |  | %-inhibition at 1 µmol/L, PRKX [1]: 47%; %-inhibition at 1 µmol/L, ZAP70 [2]: 74%; %-inhibition at 1 µmol/L, PKCι [3]: -38%; %-inhibition at 1 µmol/L, EPHB3 [4]: 0.727%; %-inhibition at 1 µmol/L, PDHK2 [5]: 2%
11 | C=CC(=O)N1CCC[C@@H](n2nc(-c3ccc(Oc4ccccc4)cc3)c3c(N)ncnc32)C1 [ibrutinib] |  |  |  |  |  | 0.66 | -4.51 | 2.23 | 3 | -1.08 | 
12 | C[C@@H](Oc1cc(-c2cnn(C3CCNCC3)c2)cnc1N)c1c(Cl)ccc(F)c1Cl [crizotinib] | -7 | 21 | -5 | 5 | -3.51 |  |  |  |  |  | 
